Our source for the fold change values is PubChem BioAssay AID652027 (The Scripps Research Institute Molecular Screening Center, 2013).

Activity calls are given as the source filed them.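 How the source made its calls: active means STAT3 reporter signal fold change below 0.5 at 10 µM; inactive means the rest.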

The test has as its system U3A cells, IL-6 STAT3 luciferase reporter, luminescence. As to the kind of experiment: IL-6-induced STAT3 luciferase reduction – U3A cells, luminescence, assay provider run, counter-screen for STAT5 inhibitor project, late-stage follow-up (AID 652027). As to conditions: at 10 µM; active compounds read low.
For `O=C(C[n+]1ccc2ccccc2c1)c1ccccc1`, the fold change is 1.04 (inactive).

As for `CN1/C(=C\C(=O)CN2CCc3ccccc3C2)C(C)(C)c2ccccc21`, the fold change is 1.28 (inactive).

`CC(C)(C)C(=O)C[n+]1ccc2ccccc2c1`: the fold change is 0.93 (inactive).

Regarding `CN1/C(=C\C(=O)CN2C(=O)c3ccc([N+](=O)[O-])cc3C2=O)C(C)(C)c2ccccc21`, the fold change is 0.77 (inactive).

Take `CN1/C(=C\C(=O)CN2CCCC2)C(C)(C)c2ccccc21`: the fold change was 0.72 (inactive).

As to `CN1/C(=C\C(=O)CN2C(=O)c3ccccc3CS2(=O)=O)C(C)(C)c2ccccc21`, the fold change was 0.65 (inactive).

In the case of `COc1cccc2cc(C(=O)C[n+]3ccc4ccccc4c3)c(=O)oc12`, the fold change was 1.17 (inactive).

With `Cc1cc[n+](CC(=O)/C=C2\N(C)c3ccccc3C2(C)C)cc1`, the fold change was 0.68 (inactive).

Consider `CN1/C(=C\C(=O)CN2C(=O)c3ccccc3S2(=O)=O)C(C)(C)c2ccccc21`, for which the fold change was 0.82 (inactive).

Take `CN1/C(=C\C(=O)Cn2c(=O)c(C#N)cn(C)c2=O)C(C)(C)c2ccccc21`: the fold change was 1.03 (inactive).

With `COC(=O)C1CCCCN1CC(=O)/C=C1/N(C)c2ccccc2C1(C)C` (stereo not given), the fold change is 1.04 (inactive).

For the compound `CN1/C(=C\C(=O)Cn2nnc(-c3ccccc3)n2)C(C)(C)c2ccccc21`, the fold change is 0.62 (inactive).

With `CN1/C(=C\C(=O)Cn2cnc3ccc(Cl)cc3c2=O)C(C)(C)c2ccccc21`, the fold change was 0.92 (inactive).

As to `O=C(C[n+]1ccc2ccccc2c1)c1ccc2ccccc2c1`, the fold change is 1.34 (inactive).

In the case of `CN1/C(=C\C(=O)CN2C(=O)C3CC=CCC3C2=O)C(C)(C)c2ccccc21` (stereo not given), the fold change was 0.7 (inactive).

For the compound `CN1/C(=C\C(=O)CN2C(=O)NC(C)(c3ccc(Cl)cc3)C2=O)C(C)(C)c2ccccc21` (stereo not given), the fold change was 0.75 (inactive).

With `O=C(C[n+]1ccc2ccccc2c1)Nc1ccccc1`, the fold change was 1.74 (inactive).

`O=C(C[n+]1ccc2ccccc2c1)c1cc2ccccc2oc1=O`: the fold change is 0.84 (inactive).

On to `CCOC(=O)C1CCCN(CC(=O)/C=C2/N(C)c3ccccc3C2(C)C)C1` (stereo not given), for which the fold change is 1.16 (inactive).

Regarding `CN1/C(=C\C(=O)Cn2cc(C(F)(F)F)ccc2=O)C(C)(C)c2ccccc21`, the fold change was 1.09 (inactive).

As to `Cc1cc[n+](CC(=O)/C=C2\N(C)c3ccccc3C2(C)C)c(C)c1`, the fold change is 0.61 (inactive).

`CN1/C(=C\C(=O)C[n+]2cccc(-c3ccccc3)c2)C(C)(C)c2ccccc21`: the fold change is 0.55 (inactive).

With `CN1/C(=C\C(=O)C[n+]2ccccc2)C(C)(C)c2ccccc21`, the fold change is 0.77 (inactive).

As to `COc1ccc2oc(=O)c(C(=O)C[n+]3ccc4ccccc4c3)cc2c1`, the fold change is 1.15 (inactive).

Take `CN1/C(=C\C(=O)CN2C(=O)c3ccccc3C2=O)C(C)(C)c2ccccc21`: the fold change was 0.87 (inactive).
